Tests used:
[1] = Comparison with prior art formulations: dissolved kinetin or zeatin in GDM-12, Transcutol, isostearic acid and mixtures by HPLC; conditions: for Synergistic Increase in Solubility %: zeatin
Procedure: Kinetin was combined and mixed in separate beakers containing GDM-12, Transcutol, and Isostearic Acid, and the concentration of dissolved kinetin in each beaker was determined by HPLC. Kinetin was then combined and mixed in separate beakers containing GDM-12 and Transcutol (1:1) and containing GDM-12 and Isostearic acid.
Zeatin was combined and mixed in separate beakers containing GDM-12, Transcutol, and Isostearic Acid, and the concentration of dissolved zeatin in each beaker was determined by HPLC. Zeatin was then combined and mixed in separate beakers containing GDM-12 and Transcutol (1:1) and containing GDM-12 and Isostearic acid.

[2] = Solubility of kinetin or zeatin alone in GDM-12, GDO-12, isostearic acid and 50:50 mixtures, determined by HPLC; conditions: for calculated solubility: based on independent solubility in each solvent
Procedure: (§1) Solubilization of kinetin and zeatin was determined by HPLC.

[3] = Solubility of kinetin or zeatin when both kinetin and zeatin are dissolved, determined by HPLC
Procedure: as §1

[4] = distilled water / water; cited from earlier work
[5] = solvent GDM-12 + Isostearic Acid
[6] = solvent GDM-12 + Transcutol (1:1)
[7] = 50% GDM-12 and 50% isostearic acid
[8] = 50% GDO-12 and 50% isostearic acid

Compound: c1coc(CNc2ncnc3nc[nH]c23)c1 [Kinetin, N^6-furfuryladenine]
- Kinetin % w/w Experimental ([1]; solvent GDM-12): .164 % w/w
- Kinetin % w/w Calculated [1, 5]: .229 % w/w
- Kinetin % w/w Experimental [1, 5]: .422 % w/w
- Kinetin % w/w Calculated [1, 6]: .281 % w/w
- Kinetin % w/w Experimental [1, 6]: .287 % w/w
- Kinetin % w/w Experimental ([1]; solvent Isostearic Acid): .299 % w/w
- Kinetin % w/w Experimental ([1]; solvent Transcutol): .397 % w/w

Compound: C/C(=C\CNc1ncnc2nc[nH]c12)CO [Zeatin, (E)-2-methyl-4-(7H-purin-6-ylamino)but-2-en-1-ol]
- increase over the calculated solubility [2, 7]: 109%
- calculated solubility [2, 7]: 0.21 wt %
- increase over the calculated solubility [2, 8]: 100%
- calculated solubility [2, 8]: 0.20 wt %
- solubility ([2]; in 50% GDM-12 and 50% isostearic acid): 0.44 % w/w
- solubility ([2]; in 50% GDO-12 and 50% isostearic acid): 0.40 % w/w
- solubility ([2]; in 100% GDM-12 (PEG-12 Glycerol dimyristate)): 0.12 % w/w
- solubility ([2]; in 100% GDO-12 (PEG-12 Glycerol dioleate)): 0.10 % w/w
- solubility ([2]; in 100% isostearic acid): 0.30 % w/w
- calculated solubility ([3]; both kinetin and zeatin combined, 50% GDM-12 and 50% isostearic acid): 0.19 wt %
- increase over the calculated solubility ([3]; both kinetin and zeatin dissolved, 50% GDM-12 and 50% isostearic acid): 121%
- solubility ([3]; both kinetin and zeatin dissolved, in 50% GDM-12 and 50% isostearic acid): 0.42 % w/w
- solubility ([3]; both kinetin and zeatin dissolved, in 100% GDM-12): 0.10 % w/w
- solubility ([3]; both kinetin and zeatin dissolved, in 100% isostearic acid): 0.28 % w/w
- Zeatin % w/w Experimental ([1]; solvent GDM-12): .119 % w/w
- Zeatin % w/w Calculated [1, 5]: .229 % w/w
- Zeatin % w/w Experimental [1, 5]: .440 % w/w
- Zeatin % w/w Calculated [1, 6]: .345 % w/w
- Zeatin % w/w Experimental [1, 6]: .365 % w/w
- Zeatin % w/w Experimental ([1]; solvent Isostearic Acid): .299 % w/w
- Zeatin % w/w Experimental ([1]; solvent Transcutol): .570 % w/w
- Synergistic Increase in Solubility % [1, 5]: 92%
- Synergistic Increase in Solubility % ([1]; solvent GDM-12 + Isostearic Acid, listed as zeatin): 92%
- Synergistic Increase in Solubility % [1, 6]: 0%
- Synergistic Increase in Solubility % ([1]; solvent GDM-12 + Transcutol (1:1), listed as zeatin): does not provide a synergistic increase
- solubility in water [4]: practically insoluble

Reference: patent US10166235B2, “Kinetin/zeatin topical formulation” (Dow Pharmaceutical Sciences, Inc., priority 2013, dated 2019)
